Assay results published in PubChem BioAssay (NCI).
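Protocol summary: plate cells (96-well), add compound at 5 concentrations, incubate 48 h, interpolate endpoints linearly. At the GI50, growth is halved. At the TGI there is no net growth.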

What was measured:
Experiment in all cases: growth of human tumour cells (NCI), 48 h
MDA-MB-435 = system: MDA-MB-435
IGROV1 ovarian = system: IGROV1 ovarian
A549 NSCLC = system: A549 NSCLC
SK-OV-3 ovarian = system: SK-OV-3 ovarian
CAKI-1 renal = system: CAKI-1 renal
NCI-H23 lung = system: NCI-H23 lung
LOX IMVI melanoma = system: LOX IMVI melanoma
HOP-62 NSCLC = system: HOP-62 NSCLC
U251 CNS = system: U251 CNS
HT29 colon = system: HT29 colon

SMILES	GI50 (MDA-MB-435)	TGI (MDA-MB-435)	GI50 (IGROV1 ovarian)	TGI (IGROV1 ovarian)	GI50 (A549 NSCLC)	TGI (A549 NSCLC)	GI50 (SK-OV-3 ovarian)	TGI (SK-OV-3 ovarian)	GI50 (CAKI-1 renal)	TGI (CAKI-1 renal)	GI50 (NCI-H23 lung)	TGI (NCI-H23 lung)	GI50 (LOX IMVI melanoma)	TGI (LOX IMVI melanoma)	GI50 (HOP-62 NSCLC)	TGI (HOP-62 NSCLC)	GI50 (U251 CNS)	TGI (U251 CNS)	GI50 (HT29 colon)	TGI (HT29 colon)
CC[C@@]1(O)C(=O)NCc2c1cc1n(c2=O)Cc2cc3ccccc3nc2-1	10.9 µM	> 100 µM	12.1 µM	> 100 µM	2.37 µM	> 100 µM	8.68 µM	> 100 µM	0.754 µM	11 µM	1.8 µM	5.86 µM	2.06 µM	> 100 µM	0.42 µM	4.31 µM	2.39 µM	> 42.8 µM	9.05 µM	> 93.7 µM
CN1/C(=C\C(I)C(I)C2=[N+](C)c3ccccc3C2(C)C)C(C)(C)c2ccccc21 (configuration not stated)	0.26 µM	11.6 µM	0.464 µM	42.5 µM	0.283 µM	18.3 µM	0.247 µM	1.6 µM	0.974 µM	> 38.6 µM	0.114 µM	9.33 µM	0.295 µM	13.4 µM	0.383 µM	13.8 µM	0.262 µM	15.7 µM	0.242 µM	11.4 µM
O=C(c1ccccc1Nc1ccnc(C(F)(F)F)c1)N1CCN(c2cccc(Cl)c2)CC1	16.1 µM	66.7 µM	5.53 µM	24 µM	21.2 µM	> 100 µM	28.3 µM	92.5 µM	21 µM	75 µM	17.6 µM	> 100 µM	15.8 µM	32.2 µM	28.2 µM	> 100 µM	24.5 µM	99.4 µM	19.2 µM	53.3 µM
C/C(=C\c1ccc(Cl)cc1)C(C)(C)C(=O)O	–	> 100 µM	–	> 100 µM	–	> 100 µM	–	> 100 µM	–	> 100 µM	–	> 100 µM	–	–	–	> 100 µM	–	> 100 µM	–	> 100 µM
COc1ccccc1/C=C\c1cnnc2ccccc12	–	> 10 µM	–	> 10 µM	–	> 10 µM	–	> 10 µM	–	> 10 µM	–	> 10 µM	–	> 10 µM	–	> 10 µM	–	> 10 µM	–	> 10 µM
Nc1ccc(-c2nc3ccc4[nH]ncc4c3c3c2CCCC3)cc1F	1.38 µM	5.61 µM	0.407 µM	11.2 µM	1.04 µM	9.54 µM	0.367 µM	2.77 µM	0.323 µM	3.64 µM	1.54 µM	7.96 µM	2 µM	7.8 µM	1.67 µM	16.9 µM	1.29 µM	8.95 µM	1.53 µM	18.5 µM
O=c1[nH]cc(CS(=O)(=O)Cc2c[nH]c(=O)[nH]c2=O)c(=O)[nH]1	–	> 100 µM	–	> 100 µM	–	> 100 µM	–	–	–	> 100 µM	–	> 100 µM	–	> 100 µM	–	–	–	> 100 µM	–	> 100 µM
COc1ccc(OC)c(-c2nc3sccn3c2/C=C2/C(=O)Nc3ccc(Cl)cc32)c1	17.2 µM	44.9 µM	33.5 µM	> 100 µM	38.9 µM	> 100 µM	13.6 µM	41.5 µM	30.1 µM	> 100 µM	21.4 µM	51.4 µM	18.2 µM	40.5 µM	25 µM	60.5 µM	24.9 µM	74.1 µM	25.7 µM	67.3 µM
CC1(C)CCC[C@]23C(=O)O[C@](O)(C(=O)C4=C[C@@](C)(/C=C/CCCc5ccc6ccc7cccc8ccc5c6c78)CC[C@@]42O)[C@@H]13	0.173 µM	0.323 µM	0.175 µM	0.329 µM	0.202 µM	0.678 µM	0.178 µM	0.324 µM	0.183 µM	0.364 µM	0.178 µM	0.376 µM	0.164 µM	0.31 µM	0.215 µM	0.563 µM	0.17 µM	0.344 µM	0.235 µM	0.603 µM
CCSc1oc(-c2ccccc2)nc1[P+](c1ccccc1)(c1ccccc1)c1ccccc1	0.308 µM	1.12 µM	0.285 µM	1.53 µM	0.301 µM	4.71 µM	0.275 µM	0.977 µM	0.79 µM	2.66 µM	0.277 µM	1.1 µM	0.184 µM	0.412 µM	0.308 µM	1.87 µM	0.163 µM	4.61 µM	0.238 µM	2.33 µM
COc1ccc(-c2ccc3c(NC(=O)C4CC4)n[nH]c3n2)cc1	> 25 µM	> 25 µM	> 25 µM	> 25 µM	> 25 µM	> 25 µM	19.6 µM	> 25 µM	> 25 µM	> 25 µM	> 25 µM	> 25 µM	> 25 µM	> 25 µM	7.64 µM	> 22 µM	18 µM	> 25 µM	> 25 µM	> 25 µM
C=C(CN1CCN(c2ccccc2OC)CC1)c1ccc(C(=O)Nc2ccccc2N)cc1	1.27 µM	3.38 µM	9.54 µM	30.6 µM	11.2 µM	35.5 µM	7.18 µM	18.1 µM	3.86 µM	14.3 µM	0.447 µM	3.24 µM	0.243 µM	1.42 µM	3.27 µM	> 50 µM	1.7 µM	11.1 µM	–	–
CCOC1OCCCC1Br (configuration not stated)	–	> 100 µM	–	> 100 µM	–	> 100 µM	–	> 100 µM	–	> 100 µM	–	> 100 µM	–	> 100 µM	–	> 100 µM	–	–	–	> 100 µM
CCN(CC)CCN1C(=O)c2c(c(C)c3c(oc4cc(O)ccc43)c2C)C1=O	1.57 µM	3.08 µM	1.6 µM	3.17 µM	2.05 µM	4.68 µM	1.83 µM	3.36 µM	1.66 µM	3.06 µM	1.7 µM	3.2 µM	1.7 µM	3.18 µM	2.06 µM	4.84 µM	–	–	2.14 µM	5.41 µM
